# Measured values reported in ChEMBL document CHEMBL5724914, “Linking interpersonal differences in gut microbiota composition and drug biotransformation activity” (2024).
# Assay: (§1) The drug is tested on WLS-370 corresponding to human gut metagenome with ENA study accession number: PRJEB37062 and ENA sample accession number: ERS12561793 for biotransformation under anaerobic condition. The drug concentrations were measured over 9 timepoints collected between 0 and 24 hours of incubation by liquid-chromatography-coupled mass spectrometry (LC–MS)
# Settings: 2 µM
# Note: call rule not given here.
row,Bacterial Biotransformation,Structure (SMILES)
1,Compound NOT metabolized,NC12CC3CC(CC(C3)C1)C2 [AMANTADINE]
2,Compound metabolized,CN1CCc2c(c3ccccc3n2Cc2ccccc2)C1.CN1CCc2c(c3ccccc3n2Cc2ccccc2)C1.O=S(=O)(O)c1cccc2c(S(=O)(=O)O)cccc12
3,Compound metabolized,NC(=O)N1c2ccccc2CC(=O)c2ccccc21 [OXCARBAZEPINE]

# Assay: as §1, with “Z-027” for “WLS-370”, “to” for “to human gut”, “ERS12561826” for “ERS12561793”
# Settings: 2 µM
row,Bacterial Biotransformation,Structure (SMILES)
1,Compound NOT metabolized,NC12CC3CC(CC(C3)C1)C2 [AMANTADINE]
2,Compound NOT metabolized,CN1CCc2c(c3ccccc3n2Cc2ccccc2)C1.CN1CCc2c(c3ccccc3n2Cc2ccccc2)C1.O=S(=O)(O)c1cccc2c(S(=O)(=O)O)cccc12
3,Compound NOT metabolized,NC(=O)N1c2ccccc2CC(=O)c2ccccc21 [OXCARBAZEPINE]

# Settings: human gut metagenome, 24 h, 2 µM
row,Bacterial Biotransformation,Structure (SMILES)
1,Compound NOT metabolized,NC12CC3CC(CC(C3)C1)C2 [AMANTADINE]
2,Compound NOT metabolized,CN1CCc2c(c3ccccc3n2Cc2ccccc2)C1.CN1CCc2c(c3ccccc3n2Cc2ccccc2)C1.O=S(=O)(O)c1cccc2c(S(=O)(=O)O)cccc12
3,Compound NOT metabolized,NC(=O)N1c2ccccc2CC(=O)c2ccccc21 [OXCARBAZEPINE]

# Settings: human gut metagenome, 24 h, 2 µM
# Remark: another data set of the same source
row,Bacterial Biotransformation,Structure (SMILES)
1,Compound NOT metabolized,NC12CC3CC(CC(C3)C1)C2 [AMANTADINE]
2,Compound metabolized,CN1CCc2c(c3ccccc3n2Cc2ccccc2)C1.CN1CCc2c(c3ccccc3n2Cc2ccccc2)C1.O=S(=O)(O)c1cccc2c(S(=O)(=O)O)cccc12
3,Compound metabolized,NC(=O)N1c2ccccc2CC(=O)c2ccccc21 [OXCARBAZEPINE]

# Assay: as §1, with “Z-024” for “WLS-370”, “pig” for “human”, “ERS12561823” for “ERS12561793”
# Settings: 2 µM
row,Bacterial Biotransformation,Structure (SMILES)
1,Compound NOT metabolized,NC12CC3CC(CC(C3)C1)C2 [AMANTADINE]
2,Compound metabolized,CN1CCc2c(c3ccccc3n2Cc2ccccc2)C1.CN1CCc2c(c3ccccc3n2Cc2ccccc2)C1.O=S(=O)(O)c1cccc2c(S(=O)(=O)O)cccc12
3,Compound metabolized,NC(=O)N1c2ccccc2CC(=O)c2ccccc21 [OXCARBAZEPINE]

# Settings: human gut metagenome, 24 h, 2 µM
# Remark: another data set of the same source
row,Bacterial Biotransformation,Structure (SMILES)
1,Compound NOT metabolized,NC12CC3CC(CC(C3)C1)C2 [AMANTADINE]
2,Compound NOT metabolized,CN1CCc2c(c3ccccc3n2Cc2ccccc2)C1.CN1CCc2c(c3ccccc3n2Cc2ccccc2)C1.O=S(=O)(O)c1cccc2c(S(=O)(=O)O)cccc12
3,Compound NOT metabolized,NC(=O)N1c2ccccc2CC(=O)c2ccccc21 [OXCARBAZEPINE]

# Assay: as §1, with “Z-004” for “WLS-370”, “to” for “to human gut”, “ERS12561804” for “ERS12561793”
# Settings: 2 µM
row,Bacterial Biotransformation,Structure (SMILES)
1,Compound NOT metabolized,NC12CC3CC(CC(C3)C1)C2 [AMANTADINE]
2,Compound NOT metabolized,CN1CCc2c(c3ccccc3n2Cc2ccccc2)C1.CN1CCc2c(c3ccccc3n2Cc2ccccc2)C1.O=S(=O)(O)c1cccc2c(S(=O)(=O)O)cccc12
3,Compound metabolized,NC(=O)N1c2ccccc2CC(=O)c2ccccc21 [OXCARBAZEPINE]

# Assay: as §1, with “WLS-170” for “WLS-370”, “ERS12561762” for “ERS12561793”
# Settings: 2 µM
row,Bacterial Biotransformation,Structure (SMILES)
1,Compound metabolized,NC12CC3CC(CC(C3)C1)C2 [AMANTADINE]
2,Compound metabolized,CN1CCc2c(c3ccccc3n2Cc2ccccc2)C1.CN1CCc2c(c3ccccc3n2Cc2ccccc2)C1.O=S(=O)(O)c1cccc2c(S(=O)(=O)O)cccc12
3,Compound NOT metabolized,NC(=O)N1c2ccccc2CC(=O)c2ccccc21 [OXCARBAZEPINE]

# Assay: as §1, with “Z-020” for “WLS-370”, “rabbit” for “human”, “ERS12561819” for “ERS12561793”
# Settings: 2 µM
row,Bacterial Biotransformation,Structure (SMILES)
1,Compound NOT metabolized,NC12CC3CC(CC(C3)C1)C2 [AMANTADINE]
2,Compound NOT metabolized,CN1CCc2c(c3ccccc3n2Cc2ccccc2)C1.CN1CCc2c(c3ccccc3n2Cc2ccccc2)C1.O=S(=O)(O)c1cccc2c(S(=O)(=O)O)cccc12
3,Compound NOT metabolized,NC(=O)N1c2ccccc2CC(=O)c2ccccc21 [OXCARBAZEPINE]

# Assay: as §1, with “Z-030” for “WLS-370”, “mouse” for “human”, “ERS12561829” for “ERS12561793”
# Settings: 2 µM
row,Bacterial Biotransformation,Structure (SMILES)
1,Compound NOT metabolized,NC12CC3CC(CC(C3)C1)C2 [AMANTADINE]
2,Compound NOT metabolized,CN1CCc2c(c3ccccc3n2Cc2ccccc2)C1.CN1CCc2c(c3ccccc3n2Cc2ccccc2)C1.O=S(=O)(O)c1cccc2c(S(=O)(=O)O)cccc12
3,Compound NOT metabolized,NC(=O)N1c2ccccc2CC(=O)c2ccccc21 [OXCARBAZEPINE]

# Settings: human gut metagenome, 24 h, 2 µM
# Remark: another data set of the same source
row,Bacterial Biotransformation,Structure (SMILES)
1,Compound NOT metabolized,NC12CC3CC(CC(C3)C1)C2 [AMANTADINE]
2,Compound NOT metabolized,CN1CCc2c(c3ccccc3n2Cc2ccccc2)C1.CN1CCc2c(c3ccccc3n2Cc2ccccc2)C1.O=S(=O)(O)c1cccc2c(S(=O)(=O)O)cccc12
3,Compound NOT metabolized,NC(=O)N1c2ccccc2CC(=O)c2ccccc21 [OXCARBAZEPINE]

# Assay: as §1, with “Z-028” for “WLS-370”, “mouse” for “human”, “ERS12561827” for “ERS12561793”
# Settings: 2 µM
row,Bacterial Biotransformation,Structure (SMILES)
1,Compound NOT metabolized,NC12CC3CC(CC(C3)C1)C2 [AMANTADINE]
2,Compound NOT metabolized,CN1CCc2c(c3ccccc3n2Cc2ccccc2)C1.CN1CCc2c(c3ccccc3n2Cc2ccccc2)C1.O=S(=O)(O)c1cccc2c(S(=O)(=O)O)cccc12
3,Compound NOT metabolized,NC(=O)N1c2ccccc2CC(=O)c2ccccc21 [OXCARBAZEPINE]

# Settings: human gut metagenome, 24 h, 2 µM
# Remark: another data set of the same source
row,Bacterial Biotransformation,Structure (SMILES)
1,Compound NOT metabolized,NC12CC3CC(CC(C3)C1)C2 [AMANTADINE]
2,Compound metabolized,CN1CCc2c(c3ccccc3n2Cc2ccccc2)C1.CN1CCc2c(c3ccccc3n2Cc2ccccc2)C1.O=S(=O)(O)c1cccc2c(S(=O)(=O)O)cccc12
3,Compound NOT metabolized,NC(=O)N1c2ccccc2CC(=O)c2ccccc21 [OXCARBAZEPINE]

# Settings: human gut metagenome, 24 h, 2 µM
# Remark: another data set of the same source
row,Bacterial Biotransformation,Structure (SMILES)
1,Compound NOT metabolized,NC12CC3CC(CC(C3)C1)C2 [AMANTADINE]
2,Compound metabolized,CN1CCc2c(c3ccccc3n2Cc2ccccc2)C1.CN1CCc2c(c3ccccc3n2Cc2ccccc2)C1.O=S(=O)(O)c1cccc2c(S(=O)(=O)O)cccc12
3,Compound NOT metabolized,NC(=O)N1c2ccccc2CC(=O)c2ccccc21 [OXCARBAZEPINE]

# Settings: human gut metagenome, 24 h, 2 µM
# Remark: another data set of the same source
row,Bacterial Biotransformation,Structure (SMILES)
1,Compound NOT metabolized,NC12CC3CC(CC(C3)C1)C2 [AMANTADINE]
2,Compound NOT metabolized,CN1CCc2c(c3ccccc3n2Cc2ccccc2)C1.CN1CCc2c(c3ccccc3n2Cc2ccccc2)C1.O=S(=O)(O)c1cccc2c(S(=O)(=O)O)cccc12
3,Compound NOT metabolized,NC(=O)N1c2ccccc2CC(=O)c2ccccc21 [OXCARBAZEPINE]

# Assay: as §1, with “Z-001” for “WLS-370”, “mouse” for “human”, “ERS12561801” for “ERS12561793”
# Settings: 2 µM
row,Bacterial Biotransformation,Structure (SMILES)
1,Compound NOT metabolized,NC12CC3CC(CC(C3)C1)C2 [AMANTADINE]
2,Compound NOT metabolized,CN1CCc2c(c3ccccc3n2Cc2ccccc2)C1.CN1CCc2c(c3ccccc3n2Cc2ccccc2)C1.O=S(=O)(O)c1cccc2c(S(=O)(=O)O)cccc12
3,Compound NOT metabolized,NC(=O)N1c2ccccc2CC(=O)c2ccccc21 [OXCARBAZEPINE]

# Assay: as §1, with “Z-002” for “WLS-370”, “rabbit” for “human”, “ERS12561802” for “ERS12561793”
# Settings: 2 µM
row,Bacterial Biotransformation,Structure (SMILES)
1,Compound NOT metabolized,NC12CC3CC(CC(C3)C1)C2 [AMANTADINE]
2,Compound NOT metabolized,CN1CCc2c(c3ccccc3n2Cc2ccccc2)C1.CN1CCc2c(c3ccccc3n2Cc2ccccc2)C1.O=S(=O)(O)c1cccc2c(S(=O)(=O)O)cccc12
3,Compound metabolized,NC(=O)N1c2ccccc2CC(=O)c2ccccc21 [OXCARBAZEPINE]

# Assay: as §1, with “Z-010” for “WLS-370”, “to” for “to human gut”, “ERS12561810” for “ERS12561793”
# Settings: 2 µM
row,Bacterial Biotransformation,Structure (SMILES)
1,Compound NOT metabolized,NC12CC3CC(CC(C3)C1)C2 [AMANTADINE]
2,Compound NOT metabolized,CN1CCc2c(c3ccccc3n2Cc2ccccc2)C1.CN1CCc2c(c3ccccc3n2Cc2ccccc2)C1.O=S(=O)(O)c1cccc2c(S(=O)(=O)O)cccc12
3,Compound metabolized,NC(=O)N1c2ccccc2CC(=O)c2ccccc21 [OXCARBAZEPINE]

# Assay: as §1, with “Z-026” for “WLS-370”, “to” for “to human gut”, “ERS12561825” for “ERS12561793”
# Settings: 2 µM
row,Bacterial Biotransformation,Structure (SMILES)
1,Compound NOT metabolized,NC12CC3CC(CC(C3)C1)C2 [AMANTADINE]
2,Compound NOT metabolized,CN1CCc2c(c3ccccc3n2Cc2ccccc2)C1.CN1CCc2c(c3ccccc3n2Cc2ccccc2)C1.O=S(=O)(O)c1cccc2c(S(=O)(=O)O)cccc12
3,Compound NOT metabolized,NC(=O)N1c2ccccc2CC(=O)c2ccccc21 [OXCARBAZEPINE]

# Assay: as §1, with “WLS-090” for “WLS-370”, “ERS12561753” for “ERS12561793”
# Settings: 2 µM
row,Bacterial Biotransformation,Structure (SMILES)
1,Compound NOT metabolized,NC12CC3CC(CC(C3)C1)C2 [AMANTADINE]
2,Compound metabolized,CN1CCc2c(c3ccccc3n2Cc2ccccc2)C1.CN1CCc2c(c3ccccc3n2Cc2ccccc2)C1.O=S(=O)(O)c1cccc2c(S(=O)(=O)O)cccc12
3,Compound NOT metabolized,NC(=O)N1c2ccccc2CC(=O)c2ccccc21 [OXCARBAZEPINE]
